Measured values as given in the NIST ThermoML archive (doi:10.1021/je400917j).
Values joined by “and” are separate entries in the source; they are usually repeats but may differ in a detail not shown here. Identical values can stand only once.

What was measured:
[1] = xn = mol fraction of the nth substance listed; conditions: 101 kPa, Liquid; for mass density: Vibrating tube method
[2] = 101 kPa, Liquid; for mass density: Vibrating tube method

CC(=O)N(C)C [N,N-dimethylethanamide] + CCCCC(C)O
[1], x1 = 1
Conditions | mass density [kg/m3] | viscosity [mPa·s]
298.15 K | 936.5 | 0.94
303.15 K | 932 | 0.87
308.15 K | 927.8 | 0.8
313.15 K | 923.5 | 0.75

CCCC(C)O (stereo not drawn) [pentan-2-ol]
[2]
Conditions | mass density [kg/m3] | viscosity [mPa·s]
298.15 K | 805.4 | 3.5
303.15 K | 800.9 | 2.83
308.15 K | 796.9 | 2.35
313.15 K | 792.6 | 1.98

CC(=O)N(C)C [N,N-dimethylethanamide]
[2]
Conditions | mass density [kg/m3] | viscosity
298.15 K | 936.5 | 0.94 mPa·s
303.15 K | 932 | 0.87 mPa·s
308.15 K | 927.8 | 0.82 mPa·s and 0.8 mPa·s
313.15 K | 923.5 | 0.75 mPa·s

CC(=O)N(C)C [N,N-dimethylethanamide] + CCCCCC(C)O
[1], x1 = 1
Conditions | mass density [kg/m3] | viscosity [mPa·s]
298.15 K | 936.5 | 0.94
303.15 K | 932 | 0.87
308.15 K | 927.8 | 0.8
313.15 K | 923.5 | 0.75

CC(C)O [propan-2-ol]
[2]
Conditions | mass density [kg/m3] | viscosity [mPa·s]
298.15 K | 781.1 | 2.05
303.15 K | 776.8 | 1.79
308.15 K | 772.4 | 1.56
313.15 K | 767.8 | 1.35

CCC(C)O (stereo not drawn) [butan-2-ol] + CC(=O)N(C)C
[1], x2 = 0
Conditions | mass density [kg/m3] | viscosity [mPa·s]
298.15 K | 803 | 3.1
303.15 K | 798.9 | 2.53
308.15 K | 795 | 2.13
313.15 K | 790.2 | 1.8

CCCCCC(C)O (stereo not drawn) [2-heptanol]
[2]
Conditions | mass density [kg/m3] | viscosity [mPa·s]
298.15 K | 813.2 | 5.3
303.15 K | 809.5 | 4.48
308.15 K | 805.7 | 3.68
313.15 K | 801.5 | 2.96

CC(=O)N(C)C [N,N-dimethylethanamide] + CCCC(C)O
[1], x1 = 1
Conditions | mass density [kg/m3] | viscosity [mPa·s]
298.15 K | 936.5 | 0.94
303.15 K | 932 | 0.87
308.15 K | 927.8 | 0.8
313.15 K | 923.5 | 0.75

CCC(C)O (stereo not drawn) [butan-2-ol]
[2]
Conditions | mass density [kg/m3] | viscosity [mPa·s]
298.15 K | 803 | 3.1
303.15 K | 798.9 | 2.53
308.15 K | 795 | 2.13
313.15 K | 790.2 | 1.8

CCCCC(C)O (stereo not drawn) [2-hexanol]
[2]
Conditions | mass density [kg/m3] | viscosity [mPa·s]
298.15 K | 810.1 | 4.1
303.15 K | 806.1 | 3.41
308.15 K | 802.1 | 2.82
313.15 K | 798 | 2.22

CC(C)O [propan-2-ol] + CC(=O)N(C)C
[1], x2 = 0
Conditions | mass density [kg/m3] | viscosity [mPa·s]
298.15 K | 781.1 | 2.05
303.15 K | 776.8 | 1.79
308.15 K | 772.4 | 1.56
313.15 K | 767.8 | 1.35
